The record followed here is publication PMC5363247 (Angewandte Chemie (International Ed. in English), 2017).

The target of assay [1] is T1, factor Xa (Homo sapiens, UniProt P00742). The experiment in a line: fragment ligation assay, detection via biochemical assay. As to conditions: read-out: inhibition of factor Xa.
Assay [2] has as its target T1, factor Xa. The experiment in a line: factor Xa enzyme activity. The format is biochemical. As to conditions: initial rates, Michaelis-Menten fit.

T1 sequence (P00742 235-488 limits assumed): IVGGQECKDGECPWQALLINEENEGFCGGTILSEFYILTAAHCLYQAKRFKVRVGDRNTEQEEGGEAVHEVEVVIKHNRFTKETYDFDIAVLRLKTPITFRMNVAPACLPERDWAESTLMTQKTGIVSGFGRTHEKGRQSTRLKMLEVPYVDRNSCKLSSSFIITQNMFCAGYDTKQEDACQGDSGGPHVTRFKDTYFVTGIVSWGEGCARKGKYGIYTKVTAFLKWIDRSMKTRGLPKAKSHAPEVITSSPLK
T1 sequence (P00742 41-179 partner limits assumed): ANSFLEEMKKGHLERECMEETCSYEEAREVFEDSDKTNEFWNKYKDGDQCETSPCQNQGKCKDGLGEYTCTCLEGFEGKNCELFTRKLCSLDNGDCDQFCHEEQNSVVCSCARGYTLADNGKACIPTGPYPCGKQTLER

The term inhibition denotes the drop in the measured response relative to a control, in per cent. In the case of `N=C(N)c1ccc(CN)cc1` [compound 14, 4‐Aminomethylbenzamidine], at factor Xa [1], the inhibition at 285 µM turned out to be 20%.

As to “7‐(N‐Boc‐leucinyl‐glycinyl‐arginyl)‐7‐amino‐4‐methylcoumarin”, the “K M of fluorogenic substrate” value at factor Xa [2] was determined as 76 µM.
